In the first assay the test system is hpDNA (hairpin DNA, 28 bp as printed) (DNA, hairpin) CGCGAATTCGCGTTTTCGCGAATTCGCG
The assay is described as follows: fluorescence titration, single-site fit. Conditions: PBS (ion concentrations not given); PBS pH 7.4, room temperature, 1 h; 4 nM compound.
`CCOc1ccc(-c2nc3ccc(-c4nc5ccc(N6CCN(C)CC6)cc5[nH]4)cc3[nH]2)cc1` gave a Kd1 of 2.6 ± 0.4 nM.

The same assay, now with this note: PBS (ion concentrations not given); PBS pH 7.4, room temperature, 1 h; 10 nM compound.
`CN1CCN(c2ccc3nc(-c4ccc5nc(-c6ccc(OCCCCNC(=O)c7ccc8c(c7)C7(OC8=O)c8ccc(N(C)C)cc8[Si](C)(C)c8cc(N(C)C)ccc87)cc6)[nH]c5c4)[nH]c3c2)CC1` displayed a Kd1 of 669 ± 26 nM.

`CN1CCN(c2ccc3nc(-c4ccc5nc(-c6ccc(OCCCCNC(=O)c7ccc8c(c7)C(=O)OC87c8ccc(N(C)C)cc8[Si](C)(C)c8cc(N(C)C)ccc87)cc6)[nH]c5c4)[nH]c3c2)CC1` showed a Kd1 of 4799 ± 201 nM.

Turning to `CN1CCN(c2ccc3nc(-c4ccc5nc(-c6ccc(OCCCCNC(=O)c7ccc8c(c7)C(=O)OC87c8ccc(N(C)C)c[c]8[Ge]([CH3])([CH3])[c]8cc(N(C)C)ccc87)cc6)[nH]c5c4)[nH]c3c2)CC1`, the Kd1 was found to be 4374 ± 192 nM.

In turn, `CNc1ccc2c(c1)C(C)(C)c1cc(NC)ccc1C21OC(=O)c2cc(C(=O)NCCCCOc3ccc(-c4nc5ccc(-c6nc7ccc(N8CCN(C)CC8)cc7[nH]6)cc5[nH]4)cc3)ccc21` came in with a Kd1 of 155 ± 14 nM.

With `CN1CCN(c2ccc3nc(-c4ccc5nc(-c6ccc(OCCCCNC(=O)c7ccc8c(c7)C(=O)OC87c8ccc(N(C)C)cc8C(C)(C)c8cc(N(C)C)ccc87)cc6)[nH]c5c4)[nH]c3c2)CC1`, the Kd1 was found to be 347 ± 22 nM.

`CN1CCN(c2ccc3nc(-c4ccc5nc(-c6ccc(OCCCCNC(=O)c7ccc8c(c7)C7(OC8=O)c8ccc(N(C)C)c[c]8[Ge]([CH3])([CH3])[c]8cc(N(C)C)ccc87)cc6)[nH]c5c4)[nH]c3c2)CC1` came in with a Kd1 of 572 ± 26 nM.

`CN1CCN(c2ccc3nc(-c4ccc5nc(-c6ccc(OCCCCNC(=O)c7ccc8c(c7)C(=O)OC87c8ccc(N(C)C)cc8Oc8cc(N(C)C)ccc87)cc6)[nH]c5c4)[nH]c3c2)CC1` returned a Kd1 of 365 ± 12 nM.

Another assay has the same test system. The assay is described as follows: fluorescence titration, two-site fit with offset. Conditions: PBS (ion concentrations not given); PBS pH 7.4, room temperature, 1 h; 10 nM compound; site 1 of 2.
Compound `CN1CCN(c2ccc3nc(-c4ccc5nc(-c6ccc(OCCCCNC(=O)c7ccc8c(c7)C7(OC8=O)c8ccc(N(C)C)cc8C(C)(C)c8cc(N(C)C)ccc87)cc6)[nH]c5c4)[nH]c3c2)CC1` returned a Kd1 of 65 ± 7 nM.

Turning to `CNc1ccc2c(c1)C(C)(C)c1cc(NC)ccc1C21OC(=O)c2ccc(C(=O)NCCCCOc3ccc(-c4nc5ccc(-c6nc7ccc(N8CCN(C)CC8)cc7[nH]6)cc5[nH]4)cc3)cc21`, the Kd1 came out at 27 ± 3 nM.

In turn, `CN1CCN(c2ccc3nc(-c4ccc5nc(-c6ccc(OCCCCNC(=O)c7ccc8c(c7)C7(OC8=O)c8ccc(N(C)C)cc8Oc8cc(N(C)C)ccc87)cc6)[nH]c5c4)[nH]c3c2)CC1` returned a Kd1 of 14 ± 1 nM.

Values taken from publication PMC6385482 (2018).
